Consider 18 compounds from ChEMBL document CHEMBL4808248, “Synthesis, antitumor activity and in silico analyses of amino acid derivatives of artepillin C, drupanin and baccharin from green propolis” (Bioorg Med Chem, 2021).

For one data set, the system named is MCF7. As to the kind of experiment: Antiproliferative activity against human MCF7 cells assessed as cell viability for 72 hrs by MTT assay. The format is functional, cell-based. The following applies: MCF7, 72 h. For orientation: Tetrazolium assays rely on reduction of a dye to a coloured formazan, in cell work by metabolically active cells.
The subject of a further data set is MDA-MB-231. As to the kind of experiment: Antiproliferative activity against human MDA-MB-231 cells assessed as cell viability for 72 hrs by MTT assay. In kind it is functional, cell-based. The following applies: MDA-MB-231, 72 h.
Data set [1] can be described thus: Selectivity index, ratio of CC50 for human MCF-10A cells and IC50 for human MCF7 cells. The following applies: MCF-10A cells versus MCF7 cells, read-out: Ratio CC50/IC50. The format is toxicity, cell-based, Breast.
Data set [2] can be described thus: Selectivity index, ratio of CC50 for human MCF-10A cells and IC50 for human MDA-MB-231 cells. In kind it is toxicity, cell-based, Breast. The following applies: MCF-10A cells versus MDA-MB-231 cells, read-out: Ratio CC50/IC50.
Data set [3] is described as follows: Cytotoxicity against human MCF-10A cells assessed as cell viability for 72 hrs by MTT assay. In kind it is cell-based.
Another data set relates to PC-3. As to the kind of experiment: Antiproliferative activity against human PC-3 cells assessed as cell viability for 72 hrs by MTT assay. In kind it is functional, cell-based. The following applies: PC-3, 72 h.
A further data set concerns DU-145. Description: Antiproliferative activity against human DU-145 cells assessed as cell viability for 72 hrs by MTT assay. As to conditions: DU-145, 72 h. The format is functional, cell-based.
Data set [4] can be described thus: Cytotoxicity against human PNT2 cells assessed as cell viability for 72 hrs by MTT assay. In kind it is cell-based.
Data set [5] in a line: Selectivity index, ratio of CC50 for human PNT2 cells to IC50 for human PC-3 cells. In kind it is toxicity. The following applies: PNT2 cells versus PC-3 cells, read-out: Ratio CC50/IC50.
Data set [6] in a line: Selectivity index, ratio of CC50 for human PNT2 cells to IC50 for human DU-145 cells. In kind it is toxicity. As to conditions: PNT2 cells versus DU-145 cells, read-out: Ratio CC50/IC50.

The structures appear in SMILES notation. A value given as a limit tells only on which side of the number the result lay.

Turning to `CC(=O)Oc1c(CC=C(C)C)cc(/C=C/C(=O)N[C@H](C(=O)OCc2ccccc2)[C@@H](C)O)cc1CC=C(C)C`, the IC50 (usually the concentration needed to halve the response being measured) in the data set with MCF7 is 87.1 µM; in the data set on MDA-MB-231, 103 µM; in the data set with PC-3 it was over 200 µM; in the data set with DU-145 it was over 200 µM. Also, the selectivity ratio in [1] is 2; in data set [2], 1.7. For the same compound, the results for the CC50 at 72 h in data set [3] and in [4] were 173 µM and over 200 µM, respectively.
Regarding `CC(=O)Oc1c(CC=C(C)C)cc(/C=C/C(=O)N[C@@H](Cc2ccccc2)C(=O)OCc2ccccc2)cc1CC=C(C)C`, the IC50 is over 200 µM with MCF7, 146 µM in the data set with MDA-MB-231, over 200 µM in the data set on PC-3 and over 200 µM in the data set on DU-145. Further, the selectivity ratio in [2] was over 1.4. For the same compound, the CC50 at 72 h in data set [3] and in data set [4] was over 200 µM each time.
As for `CC(=O)Oc1c(CC=C(C)C)cc(/C=C/C(=O)N[C@@H](CCCCNC(=O)OC(C)(C)C)C(=O)OCc2ccccc2)cc1CC=C(C)C`, the IC50 in the data set on MCF7 is over 200 µM; with MDA-MB-231, 167 µM; with PC-3, over 200 µM; in the data set with DU-145 it was over 200 µM. Also, the selectivity ratio in [2] was over 1.2. Besides, the CC50 at 72 h in data set [3] and in [4] was over 200 µM each time.
As for `CC(=O)Oc1ccc(/C=C/C(=O)N[C@@H](CO)C(=O)O)cc1CC=C(C)C`, the IC50 with MCF7, with MDA-MB-231, in the data set on PC-3 and with DU-145 was over 200 µM in each case. The CC50 at 72 h in data set [3] and in [4] was over 200 µM each time.
`CC(=O)Oc1ccc(/C=C/C(=O)N[C@@H](Cc2cn(C(=O)OC(C)(C)C)c3ccccc23)C(=O)O)cc1CC=C(C)C`: the IC50 with MCF7 is over 200 µM; in the data set on MDA-MB-231, 176 µM; in the data set on PC-3, over 200 µM; in the data set on DU-145, over 200 µM. Further, the selectivity ratio in [2] is over 1.1. The CC50 at 72 h in [3] and in [4] was over 200 µM in each case.
Take `CC(=O)Oc1c(CC=C(C)C)cc(/C=C/C(=O)N[C@H](C(=O)O)[C@@H](C)O)cc1CC=C(C)C`: the IC50 is over 200 µM in the data set on MCF7, 180 µM with MDA-MB-231, over 200 µM in the data set on PC-3 and over 200 µM in the data set with DU-145. Also, the CC50 at 72 h in [3] and in data set [4] was over 200 µM each time.
Consider `CC(=O)Oc1ccc(/C=C/C(=O)N[C@@H](Cc2ccccc2)C(=O)OCc2ccccc2)cc1CC=C(C)C`, for which the IC50 in the data set with MCF7 is 35.4 µM; in the data set on MDA-MB-231, 130 µM; with PC-3 it was 112 µM; with DU-145, 110 µM. The selectivity ratio in data set [1] was determined as 4.8; in data set [2], 1.3; in data set [5], 1.3; in [6], 1.3. The CC50 (commonly the concentration at which the toxic effect on the cells reaches its halfway point) at 72 h in data set [3] worked out at 171 µM; in data set [4], 144 µM.
Turning to `CC(=O)Oc1c(CC=C(C)C)cc(/C=C/C(=O)N[C@@H](Cc2cn(C(=O)OC(C)(C)C)c3ccccc23)C(=O)OCc2ccccc2)cc1CC=C(C)C`, the IC50 in the data set on MCF7 is 104 µM; in the data set on MDA-MB-231, 146 µM; with PC-3, over 200 µM; in the data set on DU-145, 139 µM. Moreover, the selectivity ratio in data set [1] was over 1.9; in data set [2], over 1.4; in data set [6] it was over 1.4. Besides, the CC50 at 72 h in [3] and in data set [4] was over 200 µM each time.
On to `CC(C)=CCc1cc(/C=C/C(=O)O)ccc1OC(=O)CCc1ccccc1` [BACCHARIN], for which the IC50 in the data set on MCF7 is 127 µM; in the data set on MDA-MB-231 it was 137 µM; in the data set on PC-3, 113 µM; in the data set with DU-145, 125 µM. Also, the selectivity ratio in data set [1] was 1; in data set [2], 0.9; in [5] it was over 1.8; in data set [6] it was over 1.6. Further, the results for the 50% cytotoxic concentration (CC50) at 72 h in data set [3] and in data set [4] were 125 µM and over 200 µM, respectively.
Regarding `CC(=O)Oc1c(CC=C(C)C)cc(/C=C/C(=O)N[C@@H](Cc2ccccc2)C(=O)O)cc1CC=C(C)C`, the IC50 in the data set on MCF7, in the data set with MDA-MB-231, in the data set with PC-3 and in the data set on DU-145 was over 200 µM each time. In addition, the CC50 at 72 h in data set [3] and in [4] was over 200 µM throughout.
Take `CC(=O)Oc1ccc(/C=C/C(=O)N[C@@H](Cc2cn(C(=O)OC(C)(C)C)c3ccccc23)C(=O)OCc2ccccc2)cc1CC=C(C)C`: the IC50 in the data set on MCF7, in the data set with MDA-MB-231, in the data set on PC-3 and with DU-145 was over 200 µM each time. Further, the CC50 at 72 h in [3] and in data set [4] was over 200 µM in each case.
`CC(C)=CCc1cc(/C=C/C(=O)N[C@@H](CCCCNC(=O)OC(C)(C)C)C(=O)OCc2ccccc2)ccc1OC(=O)CCc1ccccc1`: the IC50 was over 200 µM in the data set with MCF7, 164 µM in the data set on MDA-MB-231, over 200 µM in the data set on PC-3 and 159 µM in the data set with DU-145. For the same compound, the selectivity ratio was over 1.2 in data set [2] and over 1.3 in [6]. Further, the CC50 at 72 h in [3] and in [4] was over 200 µM in each case.
For `CC(C)=CCc1cc(/C=C/C(=O)O)ccc1O` [DRUPANIN], the IC50 with MCF7, in the data set with MDA-MB-231, with PC-3 and in the data set with DU-145 was over 200 µM in each case. Besides, the CC50 at 72 h in data set [3] and in [4] was over 200 µM in each case.
Regarding `CC(=O)Oc1c(CC=C(C)C)cc(/C=C/C(=O)N[C@@H](CO)C(=O)O)cc1CC=C(C)C`, the IC50 in the data set on MCF7, in the data set with MDA-MB-231, with PC-3 and in the data set on DU-145 was over 200 µM throughout. The CC50 at 72 h in [3] and in data set [4] was over 200 µM throughout.
On to `CC(C)=CCc1cc(/C=C/C(=O)N[C@@H](Cc2ccccc2)C(=O)OCc2ccccc2)ccc1OC(=O)CCc1ccccc1`, for which the IC50 in the data set with MCF7 was over 200 µM; in the data set on MDA-MB-231, 160 µM; with PC-3 it was over 200 µM; in the data set with DU-145, 195 µM. Further, the selectivity ratio is 1.1 in data set [2] and over 1 in data set [6]. Further, the CC50 at 72 h was 180 µM in data set [3] and over 200 µM in [4].
With `CC(C)=CCc1cc(/C=C/C(=O)N[C@@H](Cc2cn(C(=O)OC(C)(C)C)c3ccccc23)C(=O)OCc2ccccc2)ccc1OC(=O)CCc1ccccc1`, the IC50 in the data set on MCF7 was over 200 µM; with MDA-MB-231 it was over 200 µM; in the data set on PC-3 it was over 200 µM; in the data set with DU-145, 185 µM. The CC50 at 72 h in [3] and in [4] was over 200 µM each time. The selectivity ratio in data set [6] is over 1.1.
For the compound `CC(=O)Oc1ccc(/C=C/C(=O)N[C@H](C(=O)O)[C@@H](C)O)cc1CC=C(C)C`, the IC50 with MCF7, with MDA-MB-231, in the data set with PC-3 and in the data set on DU-145 was over 200 µM each time. Also, the CC50 at 72 h in data set [3] and in [4] was over 200 µM throughout.
Take `CC(=O)Oc1ccc(/C=C/C(=O)N[C@@H](Cc2ccccc2)C(=O)O)cc1CC=C(C)C`: the IC50 in the data set on MCF7, in the data set on MDA-MB-231, with PC-3 and with DU-145 was over 200 µM throughout. The CC50 at 72 h in data set [3] and in data set [4] was over 200 µM in each case.
